IC50 data for two compounds are collected here from paper PMC3124791 (2011).

The target in this experiment is BACE-1 (β-secretase) (Homo sapiens, UniProt P56817). The experiment is described as follows: cell-free chemoluminescent BACE-1 activity assay. Type of experiment: biochemical.
Chain of BACE-1 (β-secretase) (P56817 46-457): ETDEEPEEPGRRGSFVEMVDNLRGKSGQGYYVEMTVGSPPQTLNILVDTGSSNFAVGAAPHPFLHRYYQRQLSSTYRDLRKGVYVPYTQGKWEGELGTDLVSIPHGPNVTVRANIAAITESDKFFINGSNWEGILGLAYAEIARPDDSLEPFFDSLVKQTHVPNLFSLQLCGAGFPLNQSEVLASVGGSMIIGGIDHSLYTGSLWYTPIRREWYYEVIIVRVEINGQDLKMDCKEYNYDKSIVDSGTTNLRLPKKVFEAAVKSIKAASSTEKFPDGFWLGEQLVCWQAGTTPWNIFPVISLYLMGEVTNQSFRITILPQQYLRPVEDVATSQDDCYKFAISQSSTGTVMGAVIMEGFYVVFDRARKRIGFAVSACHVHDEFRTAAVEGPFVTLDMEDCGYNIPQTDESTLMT

For orientation: IC50 means the concentration that gives 50% inhibition. In the case of `O=c1cc(-c2ccc(O)cc2)oc2cc(O)cc(O)c12` [apigenin, 4',5,7-Trihydroxyflavone], the IC50 was 34.2 µM.
In the case of `O=c1c(O)c(-c2ccc(O)cc2)oc2cc(O)cc(O)c12` [kaempferol, 3,5,7-Trihydroxy-2-(4-hydroxyphenyl)-4H-1-benzopyran-4-one] it was 27.7 µM.
